Drawing on patent US20260028352A1, “MACROCYCLIC IMIDAZO [1,2-B] PYRIDAZINE DERIVATIVE, PREPARATION METHOD THEREFOR, AND USE THEREOF” (SUZHOU LANGRUI BIOPHARMACEUTICAL CO., LTD., priority 2022, published 2026), this text covers IC50 for 16 compounds.

Experiment [1] relates to Ba/F3-TPM3-NTRK1-G595R cells. Put plainly: Growth inhibition of Ba/F3-TPM3-NTRK1-G595R cells (Cell Titer-Glo). Conditions: 72 hours, CTG; read-out: inhibitory activity IC50 Ba/F3-TPM3-NTRK1-G595R. In kind it is cell-based. How it is done: (§1) Then the solutions were subjected to a gradient dilution with DMSO: a clean, sterile V-bottom 96-well microplate was placed in the biological safety cabinet. First, 4 μL of DMSO was added to well B2 and 10 μL of DMSO was added to wells B3-B11 respectively; Next, 6 μL of the 10 mM solution was added to well B2. The microplate was pipetted up and down 10 times for mixing. […] Mixing was performed by pipetting up and down 10 times. The solution was diluted in order until well B10. only DMSO was added to well B11 (no compound).
(§2) 6× Compound Solution Preparation (6-fold dilution, × represents dilution factor): (Initial final concentration: 10 μM), a clean, sterile V-bottom 96-well microplate was placed in the biological safety cabinet. 99 μL of cell culture medium was added to each well from B2 to G11. By using a 12-channel pipettor, 1 μL of the compound solution prepared in the previous step was added into the corresponding wells. The solutions were pipetted up and down 10 times to mix the solutions. The highest concentration of compound in this step was 60 μM.
(§3) Treatment of Cells: the above-prepared cell culture plate was taken out of the incubator. 20 μL of compound solution from each well was added to the corresponding cell culture wells. The lowest pipetting speed was used and touching the bottom of the plate was avoided. The culture plate was gently shaked to mix the compound solution, then the plate was returned to the incubator for further culture for 72 hours.
(§4) The highest treatment concentration of the compound was 10 μM. After 72 hours of treatment, the Cell Titer-Glo (CTG) assay was performed. First, the cell culture plate was removed from the CO2 incubator and allowed to stand at room temperature for 30 minutes to ensure uniform temperature of the plate. The pre-prepared Cell Titer-Glo reagent (following the manufacturer's instructions) was taken and allowed to stand at room temperature to thaw. 60 μL of Cell Titer-Glo reagent was added to each well containing cells. The cells were incubated on a horizontal shaker in a dark place at 225 rpm for 1 hour at room temperature. Then, a Tecan Spark microplate reader was used to read the plate using chemiluminescence according to the manufacturer's instructions.
(In ATP-based viability assays light output follows the ATP content of the culture.)

The test system of experiment [2] is Ba/F3-TPM3-NTRK1-G667C cells. Put plainly: Growth inhibition of Ba/F3-TPM3-NTRK1-G667C cells (Cell Titer-Glo). In kind it is cell-based. Conditions: 72 hours, CTG; read-out: inhibitory activity IC50 Ba/F3-TPM3-NTRK1-G667C. How it is done:
as §1, §2, §3, §4

Experiment [3] relates to Ba/F3-TPM3-NTRK1-WT cells. Put plainly: Growth inhibition of Ba/F3-TPM3-NTRK1-WT cells (Cell Titer-Glo). Type of experiment: cell-based. Conditions: 72 hours, CTG; read-out: inhibitory activity IC50 Ba/F3-TPM3-NTRK1-WT. The protocol: as §1, §2, §3, §4
The target in experiment [4] is TRKA^WT kinase (Homo sapiens (Human), UniProt P04629). The experiment can be described thus: Inhibitory activity against TRKA WT kinase (Caliper mobility shift). In kind it is biochemical. Conditions: in vitro kinase assay. How it is done: Kinase Assay Process: 1× Kinase buffer was prepared. […] The compounds were serially diluted into 10 concentrations ([…], 0.15, and 0.05 nM) using a Precision 3-fold dilution method. By using the Echo550 liquid handler, 250 nL of the 100-fold final concentration compound was transferred to an OptiPlate-384F plate. a 2.5× final concentration kinase solution was prepared using 1× Kinase buffer. 10 μL of the 2.5× final concentration kinase solution was added to the compound wells and the positive control wells, and 10 μL of 1× Kinase buffer was added to the negative control wells. The plate was centrifuged at 1000 rpm for 30 seconds, vortexed for mixing, and then incubated at room temperature for 10 minutes. A mixture of 5/3× final concentration of ATP and Kinase Substrate 22 was prepared using 1× Kinase buffer. 15 μL of the mixture of the 5/3× final concentration ATP and the substrate was added to initiate the reaction, the 384-well plate was centrifuged at 1000 rpm for 30 seconds, vortexed for mixing, and incubated at room temperature for the required time. 30 μL of the termination solution was added to stop the kinase reaction, the plate was centrifuged at 1000 rpm for 30 seconds, and vortexed for mixing. The conversion rate was measured using the Caliper EZ Reader.
Data Analysis: the inhibition rate was calculated as follows:
% Inhibition=(Conversion %_max−conversion %_sample)÷(Conversion %_max−conversion %_min)×100
Conversion %_sample is the conversion rate reading for the sample; Conversion %_min is the average value of the negative control wells, representing the conversion rate for wells without enzyme activity: Conversion %_max is the average value of the positive control wells, representing the conversion rate for wells without compound inhibition. A dose-response curve was fitted using the log concentration of the compound as the X-axis and the percentage inhibition as the Y-axis. The log(inhibitor) vs. response-variable slope of the GraphPad Prism 5 software was used to fit the dose-response curve, and the IC50 value for each compound was obtained. The calculation formula is:
Y=Bottom+(Top−Bottom)/(1+10^((Log IC50−X)*HillSlope)).
wherein X represents the concentration of the compound to be tested; Y represents the inhibition rate at the concentration X: Top refers to the maximum response: Bottom refers to the baseline response; HillSlope refers to the slope of the curve (i.e., the gradient).

TRKA^WT kinase, sequence (P04629 33-796): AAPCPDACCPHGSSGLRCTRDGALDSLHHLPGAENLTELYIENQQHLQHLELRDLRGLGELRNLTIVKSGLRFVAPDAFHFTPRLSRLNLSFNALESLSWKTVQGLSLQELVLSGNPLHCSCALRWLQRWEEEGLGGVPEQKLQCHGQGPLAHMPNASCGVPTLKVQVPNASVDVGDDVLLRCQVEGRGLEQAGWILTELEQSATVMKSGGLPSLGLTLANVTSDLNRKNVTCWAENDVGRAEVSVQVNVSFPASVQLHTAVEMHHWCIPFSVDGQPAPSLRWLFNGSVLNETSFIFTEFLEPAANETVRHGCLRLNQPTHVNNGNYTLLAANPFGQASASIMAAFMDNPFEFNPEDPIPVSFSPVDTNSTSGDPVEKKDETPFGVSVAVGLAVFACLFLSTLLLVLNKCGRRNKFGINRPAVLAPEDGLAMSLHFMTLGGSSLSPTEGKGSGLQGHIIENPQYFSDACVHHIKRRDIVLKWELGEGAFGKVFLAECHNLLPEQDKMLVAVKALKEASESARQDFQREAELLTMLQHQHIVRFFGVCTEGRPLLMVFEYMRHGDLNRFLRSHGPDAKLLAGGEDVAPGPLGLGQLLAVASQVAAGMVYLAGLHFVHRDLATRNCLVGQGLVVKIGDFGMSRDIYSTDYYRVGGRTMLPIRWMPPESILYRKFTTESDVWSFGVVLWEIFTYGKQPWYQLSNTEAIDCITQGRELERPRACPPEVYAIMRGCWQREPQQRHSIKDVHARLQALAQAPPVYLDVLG

On to `CC1Nc2ccc3ncc(n3n2)-c2cc(ccn2)CCOc2ccccc21` (centres unmarked) [Example I-9, (E)-4-methyl-6-oxa-3-aza-2(3,6)-imidazo[1,2-b]pyridazina-1(2,4)-pyridina-5(1,2)-benzenacyclooctaphane], for which the IC50 in experiment [1] was 297 nM; in experiment [2], 308 nM; in experiment [3], 11 nM.
For `CC1Nc2ccc3ncc(n3n2)-c2cc(ncn2)COc2ccccc21` (centres unmarked) [Example I-10, (E)-6-methyl-4-oxa-7-aza-1(3,6)-imidazo[1,2-b]pyridazina-2(4,6)-pyrimidine-5(1,2)-benzenacycloheptaphane], in that order: 378 nM, 378 nM and 4.6 nM.
For `CC1Nc2ccc3ncc(n3n2)-c2cc(ncn2)CCOc2ccccc21` (centres unmarked) [Example I-11, […]], in that order: 419 nM, 419 nM and 2.5 nM.
For `C[C@@H]1Cc2ccnc(c2)-c2cnc3ccc(nn23)N2C[C@@H](F)C[C@@H]2c2cc(F)ccc2O1` [Example I-39, (3^2R,3^4S,6R,E)-3^4,4^5-difluoro-6-methyl-5-oxa-2(3,6)-imidazo[1,2-b]pyridazina-1(2,4)-pyridina-3(1,2)-pyrrolidina-4(1,2)-benzenacycloheptaphane], in that order: 0.1 nM, 0.3 nM and 0.01 nM.
As to `C[C@@H]1Cc2ccnc(c2)-c2cnc3ccc(nn23)N2C[C@@H](F)C[C@@H]2c2cc(F)cnc2O1` [Example I-40, (3^2R,3^4S,6R,E)-3^4,4^5-difluoro-6-methyl-5-oxa-2(3,6)-imidazo[1,2-b]pyridazina-1(2,4),4(3,2)-dipyridina-3(1,2)-pyrrolidinacycloheptaphane], the values for the IC50 in experiment [1], in experiment [2] and in experiment [3] were 0.1 nM, 0.1 nM and 0.01 nM, respectively.
Regarding `Fc1ccc2c(c1)[C@H]1C[C@H](F)CN1c1ccc3ncc(n3n1)-c1cc(ccn1)CO2` [Example I-50, (14bR,16S,E)-13,16-difluoro-14b,15,16,17-tetrahydro-9H-1,19-etheno-4,8-(metheno)benzo[b]imidazo[1,5-h]pyrrolo[2,1-d][1]oxa[5,7,8,11]tetraazacyclopentadecine], the results for the IC50 in experiment [1], in experiment [2] and in experiment [3] were 0.2 nM, 0.3 nM and 0.1 nM, respectively.
Take `Fc1ccc2c(c1)[C@H]1C[C@H](F)CN1c1ccc3ncc(n3n1)-c1cc(ccn1)CCO2` [Example I-54, (3^2R,3^4S,E)-3^4,4^5-difluoro-5-oxa-2(3,6)-imidazo[1,2-b]pyridazina-1(2,4)-pyridina-3(1,2)-pyrrolidina-4(1,2)-benzenacycloheptaphane]: the results for the IC50 in experiment [1], in experiment [2] and in experiment [3] were 0.4 nM, 2.1 nM and 0.18 nM, respectively.
For `Fc1cnc2c(c1)[C@H]1C[C@H](F)CN1c1ccc3ncc(n3n1)-c1cc(ccn1)CCO2` [Example I-56, (3^2R,3^4S,E)-3^4,4^5-difluoro-5-oxa-2(3,6)-imidazo[1,2-b]pyridazina-1(2,4), 4(3,2)-dipyridina-3(1,2)-pyrrolidinacycloheptaphane], in that order: 0.9 nM, 9.4 nM and 0.2 nM.
For `Fc1ccc2c(c1)[C@H]1C[C@H](F)CN1c1ccc3ncc(n3n1)-c1cc(ncn1)CO2` [Example I-58, (14bR,16S,E)-13,16-difluoro-14b,15,16,17-tetrahydro-9H-1,19-etheno-4,8-(metheno)benzo[n]imidazo[5,1-h]pyrrolo[1,2-l][1]oxa[4,6,9,10,12]pentaazacyclopentadecine], in that order: 2.1 nM, 12.7 nM and 0.14 nM.
`Fc1cnc2c(c1)[C@H]1C[C@H](F)CN1c1ccc3ncc(n3n1)-c1cc(ncn1)CO2` [Example I-60, (14bR,16S,E)-13,16-difluoro-14b,15,16,17-tetrahydro-9H-1,19-etheno-4,8-(metheno)imidazo[5,1-h]pyrido[3,2-n]pyrrolo[1,2-l][1]oxa[4,6,9,10,12]pentaazacyclopentadecine]: the IC50 worked out at 2.5 nM in experiment [1], 22.5 nM in experiment [2] and 0.13 nM in experiment [3].
Turning to `Fc1ccc2c(c1)[C@H]1C[C@H](F)CN1c1ccc3ncc(n3n1)-c1nccc(n1)CO2` [Example I-62, (14bR,16S,E)-13,16-difluoro-14b,15,16,17-tetrahydro-9H-4,8-(azeno)-1,19-ethenobenzo[b]imidazo[1,5-h]pyrrolo[2,1-d][1]oxa[5,7,8,11]tetraazacyclopentadecine], the IC50 in experiment [1] is 0.7 nM; in experiment [2], 13.6 nM; in experiment [3] it was 0.21 nM.
For `Fc1cnc2c(c1)[C@H]1C[C@H](F)CN1c1ccc3ncc(n3n1)-c1nccc(n1)CO2` [Example I-64, (14bR,16S,E)-13,16-difluoro-14b,15,16,17-tetrahydro-9H-4,8-(azeno)-1,19-ethenoimidazo[1,5-h]pyrido[2,3-b]pyrrolo[2,1-d][1]oxa[5,7,8,11]tetraazacyclopentadecine], in that order: 0.9 nM, 8.5 nM and 0.3 nM.
Consider `Fc1ccc2c(c1)[C@H]1C[C@H](F)CN1c1ccc3ncc(n3n1)-c1cc(cnn1)CO2` [Example I-66, (14bR,16S,E)-13,16-difluoro-14b,15,16,17-tetrahydro-9H-1,19-etheno-4,8-(metheno)benzo[n]imidazo[5,1-h]pyrrolo[1,2-l][1]oxa[5,6,9,10,12]pentaazacyclopentadecine], for which the IC50 in experiment [1] was determined as 0.4 nM; in experiment [2], 1.3 nM; in experiment [3], 0.05 nM.
For `Fc1cnc2c(c1)[C@H]1C[C@H](F)CN1c1ccc3ncc(n3n1)-c1cc(cnn1)CO2` [Example I-68, (14bR,16S,E)-13,16-difluoro-14b,15,16,17-tetrahydro-9H-1,19-etheno-4,8-(metheno)imidazo[5,1-h]pyrido[3,2-n]pyrrolo[1,2-l][1]oxa[5,6,9,10,12]pentaazacyclopentadecine], in that order: 1.6 nM, 2.8 nM and 0.06 nM.
As for “(R)-(E)-4-methyl-6-oxa-3-aza-2(3,6)-imidazo[1,2-b]pyridazina-1(4,6)-pyrimidina-5(1,2)-benzenacyclooctaphane [Example I-33]”, the IC50 in experiment [4] stood at 5.9 nM.
Still for that read-out and setting: the same measure for “(S)-(E)-5^5-fluoro-6-methyl-3-oxa-7-aza-1(3,6)-imidazo[1,2-b]pyridazina-2(2,4), 5(2,3)-dipyridinacycloheptaphane [Example I-25]”: 5.1 nM.
